These results are taken from article PMC6778101 (Nature Communications, 2019).

The subject of this experiment is A. baumannii ATCC 17978. In kind it is cell-based, Acinetobacter baumannii. The conditions noted are these: Acinetobacter baumannii ATCC 17978; broth dilution, 37 °C, 18 h. How it is done:
Unless otherwise indicated, we used E. coli K-12 BW25113 in all high-throughput experiments. To investigate the impact of mutation rate on evolution of AMP resistance, we initiated laboratory evolution with a mutator strain E. coli mutD5 that carries mutations in the dnaQ gene (L73W and A164V).
MICs were determined using a standard serial broth dilution technique. Briefly, 11-step serial dilutions were prepared in 96-well microtiter plates with three replicates per strain and antimicrobial compound. Each experiment was repeated at least twice. 5 × 10^5 cells/mL were inoculated into each well, and the plates were incubated at 30 °C in case of E. coli K-12 BW25113, and its antibiotic and AMP-adapted lines, or 37 °C in case of the other bacterial species. Plates were shaken at 300 r.p.m. during incubation for 24 and 18 h, respectively. Cell growth was monitored by measuring the optical density (OD600 value, Biotek Synergy 2 microplate reader was used for this purpose). […] Relative MIC was calculated as follows: MICrelative = MICevolved/MICcontrol.

Ends that are not written are not given here.

As to “SWLSKTAKKLENSAKKRISEGIAIAIQGGPR [CP1, Cecropin P1]”, the minimum inhibitory concentration (MIC) lay within 0.6 to 1.2 µM.
